Experimental data: patent publication US20080085886A1, “Aza-benzofuranyl compounds and methods of use” (GENENTECH, INC., priority 2006, published 2008)
pEC50: −log10 of the molar value.

Tests used:
[1] = tested on: cellular p-ERK in HCT116 human colorectal carcinoma / A375 human malignant melanoma cell lines; test: Phospho-ERK cell-based assay (ELISA), Example 4; details: in either one of the cell lines (HCT116, A375), 2 h or 24 h exposure
Method: Example 4 Phospho-ERK Cell-Based Assay
Compounds are tested in a cell-based phospho-ERK ELISA using the following cell lines:
HCT116 human colorectal carcinoma (ATCC)
(§1) A375 human malignant melanoma (ATCC)
(§2) Both cell lines are maintained in DMEM/F12 (1:1) media (Gibco) supplemented with 10% FCS at 37° C. in a 5% CO2 humidified incubator.
Cells are seeded in 96-well plates at 2,000 cells/well and after 24 h they are exposed to different concentrations of compounds in 0.83% DMSO. Cells are grown for a further 2 h or 24 h, fixed with formaldehyde (2% final) and permeabilised with methanol. Following blocking with TBST-3% BSA, fixed cells are incubated with primary antibody (anti-phospho ERK from rabbit) over-night at 4° C. Cells are incubated with Propidium Iodide (DNA fluorescent dye) and detection of cellular p-ERK is performed using an anti-rabbit secondary antibody conjugated to the fluorescent Alexa Fluor 488 dye (Molecular probes). The fluorescence is analysed using the Acumen Explorer (TTP Labtech), a laser-scanning microplate cytometer, and the Alexa Fluor 488 signal is normalised to the PI signal (proportional to cell number).
The EC50 is defined as the concentration at which a given compound achieves a signal half way between the baseline and the maximum response. EC50 values are calculated using the XLfit software package (version 2.0.5).

[2] = tested on: HCT 116 human colorectal carcinoma / A375 human malignant melanoma cell lines; test: Cell proliferation assay (CellTiter-Glo), Example 3; type: cell-based; details: in either one of the cell lines (HCT 116, A375), 72 h
Method: Example 3 Cell Proliferation Assay
Compounds are tested in a cell proliferation assay using the following cell lines:
HCT 116 human colorectal carcinoma (ATCC)
as §1, §2
Cells are seeded in 96-well plates at 2,000 cells/well and after 24 hours they are exposed to different concentrations of compounds in 0.83% DMSO. Cells are grown for a further 72 h, and an equal volume of CellTiter-Glo reagent (Promega) is added to each well. This lyses the cells and generates a luminescent signal proportional to the amount of ATP released (and therefore proportional to the number of cells in the well) that can be detected using a multiwell luminometer.
EC50 values are calculated using the XLfit software package (version 2.0.5).

Row | Compound | pEC50 [1] | pEC50 [2]
1 | CN(c1ccc(I)cc1F)c1c(C(=O)NOCCO)oc2ccncc12 [Example 22, 3-[(2-Fluoro-4-iodo-phenyl)-methyl-amino]-furo[3,2-c]pyridine-2-carboxylic acid (2-hydroxy-ethoxy)-amide] | > 5.00 | > 5.00
2 | O=C(c1oc2ccncc2c1Nc1ccc(I)cc1F)N1CC(O)CO1 (stereo not shown) [Example 28, [3-(2-Fluoro-4-iodo-phenylamino)-furo[3,2-c]pyridin-2-yl]-(4-hydroxy-isoxazolidin-2-yl)-methanone] | > 5.00 | > 5.00
3 | NC(=O)c1oc2ccncc2c1Nc1ccc(I)cc1F [Example 21, 3-(2-Fluoro-4-iodo-phenylamino)-furo[3,2-c]pyridine-2-carboxylic acid amide] | > 5.00 | > 5.00
4 | CSc1ccc(Nc2c(C(=O)NOCCO)oc3ccncc23)c(F)c1 [Example 35, 3-(2-Fluoro-4-methylsulfanyl-phenylamino)-furo[3,2-c]pyridine-2-carboxylic acid (2-hydroxy-ethoxy)-amide] | > 5.00 | > 5.00
5 | O=C(NOC1CCCNC1)c1oc2ccncc2c1Nc1ccc(I)cc1F (stereo not shown) [Example 140, 3-(2-Fluoro-4-iodo-phenylamino)-furo[3,2-c]pyridine-2-carboxylic acid (piperdin-3-yloxy)-amide] | > 5.00 | > 5.00

Continued, values first:

Row | pEC50 [1] | pEC50 [2] | Compound
6 | > 5.00 | > 5.00 | O=C(NOC[C@H](O)CO)c1oc2c(Br)cncc2c1Nc1ccc(I)cc1F [Example 18, 7-Bromo-3-(2-fluoro-4-iodo-phenylamino)-furo[3,2-c]pyridine-2-carboxylic acid ((R)-2,3-dihydroxy-propoxy)amide]
7 | > 5.00 | > 5.00 | O=C(NOC[C@H](O)CO)c1oc2ccncc2c1Nc1ccc(I)cc1Cl [Example 13, 3-(2-Chloro-4-iodo-phenylamino)-furo[3,2-c]pyridine-2-carboxylic acid ((R)-2,3-dihydroxy-propoxy)-amide]
8 | > 5.00 | > 5.00 | O=C(NOC[C@@H]1CCCN1)c1oc2ccncc2c1Nc1ccc(I)cc1F [Example 141, 3-(2-Fluoro-4-iodo-phenylamino)-furo[3,2-c]pyridine-2-carboxylic acid ((S)-1-pyrrolidin-2-ylmethoxy)-amide]
9 | > 5.00 | > 5.00 | O=C(NOCC1CC1)c1oc2ccncc2c1Nc1ccc(I)cc1F [Example 8, 3-(2-Fluoro-4-iodo-phenylamino)-furo[3,2-c]pyridine-2-carboxylic acid cyclopropylmethoxy-amide]
10 | > 5.00 | > 5.00 | O=C(NOCCO)c1oc2ccncc2c1Nc1ccc(I)cc1F [Example 10, 3-(2-Fluoro-4-iodo-phenylamino)-furo[3,2-c]pyridine-2-carboxylic acid (2-hydroxy-ethoxy)-amide]
11 | > 5.00 | > 5.00 | O=C(NOCCO)c1oc2c(-c3ccccc3)cncc2c1Nc1ccc(I)cc1F [Example 133, 3-(2-Fluoro-4-iodo-phenylamino)-7-phenyl-furo[3,2-c]pyridine-2-carboxylic acid (2-hydroxy-ethoxy)-amide]
